Legend:
human CB1 receptor = human CB1 receptor (Homo sapiens, UniProt P21554); experiment: In vitro cannabinoid-CB1 receptor antagonism (WIN 55,212-2-induced [3H]-arachidonic acid release in CHO cells); format: cell-based; conditions: 10^−6M
Protocol: In vitro CB1 receptor antagonism can be assessed with the human CB1 receptor cloned in Chinese hamster ovary (CHO) cells. CHO cells are grown in a Dulbecco's Modified Eagle's medium (DMEM) culture medium, supplemented with 10% heat-inactivated fetal calf serum. Medium is aspirated and replaced by DMEM, without fetal calf serum, but containing [^3H]-arachidonic acid and incubated overnight in a cell culture stove (5% CO2/95% air; 37° C.; water-saturated atmosphere). During this period [^3H]-arachidonic acid is incorporated in membrane phospholipids. On the test day, medium is aspirated and cells are washed three times using 0.5 ml DMEM, containing 0.2% bovine serum albumin (BSA). Stimulation of the CB1 receptor by WIN 55,212-2 leads to activation of PLA2 followed by release of [^3H]-arachidonic acid into the medium. This WIN 55,212-2-induced release is concentration-dependently antagonized by CB1 receptor antagonists.

[1] = molecular target: human cannabinoid CB1 receptor (Homo sapiens, UniProt P21554); experiment: In vitro affinity for cannabinoid-CB1 receptors ([3H]CP-55,940 radioligand binding, CHO cell membranes); conditions: read-out: In vitro affinity pKi value (converted)
Protocol: The affinity of the compounds of the invention for cannabinoid CB1 receptors can be determined using membrane preparations of Chinese hamster ovary (CHO) cells in which the human cannabinoid CB1 receptor is stably transfected in conjunction with [^3H]CP-55,940 as radioligand. After incubation of a freshly prepared cell membrane preparation with the [^3H]-ligand, with or without addition of compounds of the invention, separation of bound and free ligand is performed by filtration over glassfiber filters. Radioactivity on the filter is measured by liquid scintillation counting.

Chain of human CB1 receptor (P21554 whole entry): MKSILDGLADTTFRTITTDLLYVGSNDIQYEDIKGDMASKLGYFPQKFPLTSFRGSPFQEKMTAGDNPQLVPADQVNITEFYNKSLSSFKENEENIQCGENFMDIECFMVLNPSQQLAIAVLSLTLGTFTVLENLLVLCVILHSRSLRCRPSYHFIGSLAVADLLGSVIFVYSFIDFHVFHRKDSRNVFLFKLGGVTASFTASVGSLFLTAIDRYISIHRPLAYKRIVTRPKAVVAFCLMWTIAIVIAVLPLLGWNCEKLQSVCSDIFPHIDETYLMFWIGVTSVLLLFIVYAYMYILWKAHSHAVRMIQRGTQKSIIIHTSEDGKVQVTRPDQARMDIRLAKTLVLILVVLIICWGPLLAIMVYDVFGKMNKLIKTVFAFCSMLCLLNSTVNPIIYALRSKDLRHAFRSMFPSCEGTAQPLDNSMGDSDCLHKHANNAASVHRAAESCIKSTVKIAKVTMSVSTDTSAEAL
Chain of human cannabinoid CB1 receptor (P21554 whole entry): as above

SMILES	inhibition at 1 µM (human CB1 receptor) [%]	Ki [1] [nM]	melting point [°C]
O=C(NC1CCCCC1)C1=NN(c2ccc(Cl)cc2Cl)C(c2ccccc2)C1 (stereo not shown)			160 to 163.5
O=C(NN1CCCCC1)C1=NN(c2ccc(Cl)cc2Cl)C(c2ccccc2)C1 (stereo not shown) [Compound 3, N-(Piperidin-1-yl)-1-(2,4-dichlorophenyl)-5-phenyl-4,5-dihydro-(1H)-pyrazole-3-carboxamide]	98	25.1	163 to 165
O=C(NN1CCCCC1)C1=NN(c2ccc(Cl)cc2)C(c2ccccc2)C1 (stereo not shown) [Compound 1, N-(piperidin-1-yl)-1-(4-chlorophenyl)-5-phenyl-4,5-dihydro-(1H)-pyrazole-3-carboxamide]			189 to 192

Second part, the compound after the results:

inhibition at 1 µM (human CB1 receptor) [%]	Ki [1] [nM]	melting point [°C]	SMILES
79	79.4		CNC(=NS(=O)(=O)N1CCCCC1)C1=NN(c2ccc(Cl)cc2)C(c2ccccc2)C1 (stereo not shown) [Compound 10, N-[(piperidin-1-yl)sulfonyl]-N′-methyl-1-(4-chlorophenyl)-5-phenyl-4,5-dihydro-(1H)-pyrazole-3-carboxamidine]
		167 to 169.5	N/C(=N\S(=O)(=O)c1ccc(F)cc1)C1=NN(c2ccc(Cl)cc2Cl)C(c2ccccc2)C1 (stereo not shown) [Compound 6, N-[(4-fluorophenyl)sulfonyl]-1-(2,4-dichlorophenyl)-5-phenyl-4,5-dihydro-(1H)-pyrazole-3-carboxamidine]
		161 to 165	CN/C(=N\S(=O)(=O)N1CCOCC1)C1=NN(c2ccc(Cl)cc2Cl)C(c2ccccc2)C1 (stereo not shown) [Compound 11, N-[(Morpholin-4-yl)sulfonyl]-N′-methyl-1-(2,4-dichlorophenyl)-5-phenyl-4,5-dihydro-(1H)-pyrazole-3-carboxamidine]
		200 to 203.5	N/C(=N\S(=O)(=O)c1ccc(F)cc1)C1=NN(c2ccc(Cl)cc2)C(c2ccccc2)C1 (stereo not shown) [Compound 5, N-[(4-fluorophenyl)sulfonyl]-1-(4-chlorophenyl)-5-phenyl-4,5-dihydro-(1H)-pyrazole-3-carboxamidine]

— patent US7745476B2, “1,3,5-trisubstituted 4,5-dihydro-1H-pyrazole derivatives having CB1-antagonistic activity” (Solvay Pharmaceuticals B.V., priority 2004, dated 2010)
